US10857136B2, “Compounds for use in the prevention and/or treatment of non-alcoholic fat liver disease and non-alcoholic steatohepatitis” (SJT MOLECULAR RESEARCH, SL, priority 2017, dated 2020)

Columns and labels:
Format in all cases: in vivo
[1] = test system: DIO mice (C57Bl/6J male mice); assay: Insulin resistance (HOMA-IR), 36 days assay in DIO mice; details: 50 mg/kg orally twice daily for 36 days, days 1, 8, 15, 22, 29 and 36, vs saline control, similar to metformin 150 mg/kg
Method: To assess the performance of the compounds disclosed in decreasing insulin resistance, DIO mice (C57Bl/6J male mice) were treated with hydrochloride salts of compounds 4a, 5a; and with compound 7a during 36 days, versus a control treated with saline (0.9% NaCl) and versus DIO mice treated with metformin as a positive control.
(§1) For the assessment, 60 C57Bl/6 J male mice (16-week-old at delivery and 40 g of average weight), obtained from Charles River France put on high fat diet for 10 weeks. The animals were housed in ventilated and enriched housing cages (310×125×127 mm^3) throughout the experimental phase. Animals' cages litters were changed at least once a week. Mice were housed in groups of 10 mice on a normal 12 hours light cycle (at 08:00 pm lights were switched off), at 22±2° C. and 50±10% relative humidity. After reception, mice were maintained for three additional acclimation weeks. During the whole test (acclimation+treatment phase) a high fat diet (D12492 purchased from Research Diet Inc.; 60% fat) and tap water were provided ad libitum.
After the acclimation period, mice were fasted for 6 hours and blood glucose and plasma insulin were measured. Ten animals, those with lower blood glucose/plasma insulin, were discarded from the study. […]
Body weight were weekly measured as well as blood glucose and plasma insulin after a 6 hour-fasting.
Blood glucose was measured by sampling blood from the tip of the tail: a drop of blood is collected and placed on a glucometer strip (Accu-Check® glucometer, Roche, Switzerland). Plasma insulin was detected via ELISA (Elisa Kit, Eurobio, France) using 5 μl samples.
The Homeostatic model assessment-insulin resistance index (HOMA-IR), which is used to quantify insulin resistance, was calculated from fasting blood glucose, and plasma insulin values as follows: HOMA-IR=(mM glucose×μU/mL insulin)/22.5, being this constant a normalizing factor (Matthews et al., 1985, Diabetologia 28(7), 412-9).

[2] = test system: DIO mice (C57Bl/6 J male mice); assay: Liver lipid content, 36 days assay in DIO mice (colorimetric kits); details: 50 mg/kg orally twice daily, after 36 days, vs saline control
Method: To assess the performance of the compounds disclosed in decreasing hepatic lipid content, DIO mice (C57Bl/6 J male mice) were treated with a hydrochloride salt of compound 4a; and with compound 7a during 36 days, versus a control of DIO mice treated with saline (0.9% NaCl) and versus DIO mice treated with Metformin as a positive control.
as §1, with “France, were” for “France”, “assessment” for “test”, “Inc;” for “Inc.;”
(§2) After the acclimation period, mice were fasted for 6 hours and blood glucose and plasma insulin were measured. Ten animals, those with lower blood glucose/plasma insulin, were discarded from the study. Then, the others were randomized into 5 homogenous groups (n=10 mice per group) according to their blood glucose/plasma insulin levels (HOMA-IR) and body weight. Mice were treated orally twice daily for 36 days with either saline solution (control group), SJT test compound (4a, 7a; 50 mg/kg) or metformin (150 mg/kg).
Finally, mice were sacrificed, and liver was collected, weighted and stored at −80° C. for additional analysis. Liver samples were dissected for liver lipids assay. Liver lipids were assayed using colorimetric commercial assay kits, from liver samples homogenate after lipid solubilization in deoxycholate as described by Miao et al., J Lipid Res, 2004, 45, 1410-17. Samples were homogenized with an ultrasound probe with 500 μl distilled water during few seconds. Then cholic acid at 1% is added to make lipids soluble. The measurement of the different lipids was then performed using colorimetric kits from Sobioda, France.

[3] = test system: DIO mice (C57Bl/6J male mice); assay: Liver weight, 36 days assay in DIO mice; details: 50 mg/kg orally twice daily, after 36 days, vs saline control and metformin 150 mg/kg
Method: To assess the performance of the compounds disclosed decreasing liver overweight, DIO mice (C57Bl/6J male mice) were treated with compounds 4a and 5a during 36 days, versus a control of DIO mice treated with vehicle (0.9% NaCl) and DIO mice treated with Metformin as a positive control.
as §1, with “C57Bl/6J” for “C57Bl/6 J”, “France, were” for “France”, “(D12492;” for “(D12492”, “Inc” for “Inc.;”
as §2, with “Mice were treated orally twice daily for 36 days with either saline solution (control group), SJT test compound (4a, 7a; 50 mg/kg) or metformin (150 mg/kg).” left out

SMILES | insulin resistance (HOMA-IR) [1] | hepatic cholesterol [2] | hepatic fatty acids [2] | hepatic triglycerides [2] | liver weight (liver overweight) [3]
COc1ccc(-c2nc(C(=O)N/N=C/c3ccccc3)cc3c2[nH]c2ccccc23)cc1 [Compound 7a, 3-(carbohydrazyl-N′-phenylsubstitute)-1-benzosubstitute-β-carbolinic-3-carbohydrazide] | lower insulin resistance compared to the control animals | lower lipid levels than untreated control animals | lower lipid levels than untreated control animals | lower lipid levels than untreated control animals | 
COc1ccc(-c2nc(C(=O)NCCCN)cc3c2[nH]c2ccccc23)cc1 [Compound 5a, N(-propylamine)-1-benzosubstituted-β-carboline-3-carboxamide] | lower insulin resistance compared to the control animals |  |  |  | lower liver weight than either mice treated with metformin or than the control animals
